Series [1] is described as follows: Stability of analytes in rat plasma (auto-sampler, freeze-thaw, room temperature, long-term). To be noted: for Autosampler for 24 h Accuracy (%): autosampler 24 h; for Room temperature for 24 h Accuracy (%): room temperature 24 h; for Freeze thaw cycles Accuracy (%): three freeze-thaw cycles; for −80°C for 1month Accuracy (%): −80°C 1 month.
Description: The stability of analytes in plasma was evaluated by analyzing 4 QC samples (n = 6). The stability was included auto-sampler stability (keeping the sample in auto-sampler for 24 h), three times of freeze-thaw cycles stability (freezing cycle at −80°C, thawing cycle at room temperature), room temperature stability (storing samples at room temperature for 24 h), long-term stability (storing samples at −80°C for 1 month). […] Accompanying curve was established when testing the sample, calculate and compare the ratio of the actual measured concentration to the theoretical concentration, expressed in accuracy and RSD.
Series [2] in a line: Pharmacokinetic study in rat plasma after oral administration of QJYQ (UHPLC-sMRM). The format is in vivo, Sprague-Dawley rats. To be noted: male, Sprague-Dawley, rat plasma, oral QJYQ 3.15 g/kg, n = 8, mean ± SD; for AUC(0-t): read-out: AUC(0-t); for AUC(0-inf): read-out: AUC(0-∞); for Cmax: read-out: Cmax; for MRT inf: read-out: MRT (0-∞); for MRT last: read-out: MRT(0-t). As for the experimental part:
Exion LC AD tandem Blueline 3500 triple quadrupole mass spectrometer (AB SCIEX, Framingham, MA, United States) was used to thirty-three compounds in rat plasma. […] The whole detailed parameters of sMRM were obtained in Supplementary Table S1.
Rat plasma (100 μL) was mixed with 10% formic acid (10 μL) and vortexed for 1 min at room temperature. ISs (10 μL) and methanol/acetonitrile (1/1, v/v) (400 μL) were added and vortexed for 5 min, then centrifuged for 10 min at 14,000 rpm and 4°C. The transported supernatant was condensed to dryness under the flow of nitrogen gas. The dried residue was reconstituted with 70% methanol (100 μL) by vortex-mixing for 5 min and centrifuging at 14,000 rpm for 10 min. Last, 2 μL of the solution were injected into the UHPLC-sMRM system.
The pharmacokinetic study was approved by the Animal Ethics Committee of Tianjin University of Traditional Chinese Medicine (TCM-LAEC2021228). Ten male Sprague-Dawley rats (weight 220–240 g) was kept at the animal center of Tianjin University of Traditional Chinese Medicine (Tianjin, China). […] The sample was transferred right away following a 10 min period of centrifugation at 7000 rpm and 4°C. All plasma samples were frozen and stored at −80°C.
All the pharmacokinetic parameters were calculated using the DAS 1.0 software (Drug and Statistics 1.0, Medical College of Wannan, China). Pharmacokinetic parameters include the maximum drug concentration in plasma (Cmax), the time to achieve maximum drug concentration (Tmax), the area under the plasma concentration-time curve (AUC), elimination half-life (T1/2), and mean residence time (MRT). The pharmacokinetic parameters were computed using the non-compartmental model. All data are expressed as mean ± standard deviation (SD). GraphPad Prism 8.0 (GraphPad Software Inc., La Jolla, CA, United States) software was used to draw the drug-time curve.

Series [3] in a line: Stability of the working solution (4°C for 1 month). It is filed as physicochemical.

Results on two compounds are retold here after publication PMC10133546, “Simultaneous determination of multiple components in rat plasma by UHPLC-sMRM for pharmacokinetic studies after oral administration of Qingjin Yiqi Granules” (Frontiers in Pharmacology, 2023).

Molecules are shown by their SMILES.

A word on the Tmax: it is the time at which the peak concentration occurs. By half-life is commonly meant how long it takes for the measured level to halve. A lower half-life goes with rapid decline. The AUC(0-t) is the area under the concentration-time curve up to a stated or last time point. The Cmax is the highest concentration seen after dosing. Take `O=C(O)c1ccc(O)c(O)c1` [protocatechuic acid]: in series [1] (1.56 ng/mL), the “Autosampler for 24 h Accuracy (%)” value was 103.0%, the “Room temperature for 24 h Accuracy (%)” value amounted to 110.0%, the “Freeze thaw cycles Accuracy (%)” value amounted to 103.0% and the “−80°C for 1month Accuracy (%)” value amounted to 80.4%. For the same compound, in series [1] (12.5 ng/mL), the “Autosampler for 24 h Accuracy (%)” value was 86.0%, the “Room temperature for 24 h Accuracy (%)” value was found to be 91.0% and the “−80°C for 1month Accuracy (%)” value amounted to 114.0%. Further, in series [1] (100 ng/mL), the “Autosampler for 24 h Accuracy (%)” value was 98.5%, the “Room temperature for 24 h Accuracy (%)” value was 106.0%, the “Freeze thaw cycles Accuracy (%)” value was 90.0% and the “−80°C for 1month Accuracy (%)” value was determined as 100.0%. In addition, in series [1] (500 ng/mL), the “Autosampler for 24 h Accuracy (%)” value worked out at 85.2%, the “Room temperature for 24 h Accuracy (%)” value is 85.3%, the “Freeze thaw cycles Accuracy (%)” value is reported as 89.0% and the “−80°C for 1month Accuracy (%)” value is listed as 91.2%. Besides, the Tmax in series [2] (rat, plasma, po, 3.15 g/kg, read-out: Tmax) was < 0.5 h. In series [2], the half-life is 2.33 ± 0.52 h, the exposure AUC(0-t) is 40.8 ± 10.9 ng·h/mL, the AUC(0-inf) worked out at 40.9 ± 17.3 ng·h/mL and the Cmax was 6.79 ± 4.35 ng/mL. Besides, in series [2], the MRT inf is 5.32 ± 1.53 h and the MRT last was determined as 5.3 ± 1.02 h. In addition, in series [3] (1.56 ng/mL), the “Working solution Accuracy (%)” value came out at 82.3%. For the same compound, in series [3] (12.5 ng/mL), the “Working solution Accuracy (%)” value is 104.0%. Moreover, in series [3] (100 ng/mL), the “Working solution Accuracy (%)” value is 92.6%. Also, the “Working solution Accuracy (%)” value in series [3] (500 ng/mL) is listed as 88.9%.
As to `COc1ccc(/C=C/C(=O)O)cc1O` [isoferulic acid], in series [1] (50 ng/mL), the “Room temperature for 24 h Accuracy (%)” value was found to be 108.0%, the “Freeze thaw cycles Accuracy (%)” value worked out at 95.7% and the “−80°C for 1month Accuracy (%)” value was found to be 90.8%. Also, in series [1] (100 ng/mL), the “Autosampler for 24 h Accuracy (%)” value is listed as 88.3%, the “Room temperature for 24 h Accuracy (%)” value is 87.5%, the “Freeze thaw cycles Accuracy (%)” value is reported as 86.2% and the “−80°C for 1month Accuracy (%)” value turned out to be 85.5%. For the same compound, in series [1] (200 ng/mL), the “Autosampler for 24 h Accuracy (%)” value is on record as 102.0% and the “Room temperature for 24 h Accuracy (%)” value was 87.2%. In series [1] (500 ng/mL), the “Autosampler for 24 h Accuracy (%)” value came out at 104.0%, the “Freeze thaw cycles Accuracy (%)” value was 95.6% and the “−80°C for 1month Accuracy (%)” value was found to be 106.0%. In series [2], the half-life was 4.68 ± 0.41 h, the exposure AUC(0-t) came out at 347 ± 120 ng·h/mL, the AUC(0-inf) is 354 ± 132 ng·h/mL and the peak concentration (Cmax) came out at 235 ± 81.1 ng/mL. In series [2], the MRT inf was found to be 5.85 ± 3.26 h and the MRT last turned out to be 5.25 ± 2.87 h. In addition, the “Working solution Accuracy (%)” value in series [3] (50 ng/mL) turned out to be 100.0%. Also, the “Working solution Accuracy (%)” value in series [3] (100 ng/mL) is reported as 95.7%. The “Working solution Accuracy (%)” value in series [3] (200 ng/mL) stood at 104.0%.
